What was measured:
[1] = tested on: poly A–poly U (pApU) (RNA, polymer) A/U; experiment: UV thermal melting at 260 nm; settings: Na+ (sodium cacodylate, I = 0.05 M), pH 7, r = [compound]/[polynucleotide] = 0.3, polynucleotide 2 × 10^-5 M, per base
[2] = tested on: poly dAdT–poly dAdT (AT-DNA) (DNA, polymer) AT; experiment: UV thermal melting at 260 nm; settings: Na+ (sodium cacodylate, I = 0.05 M), pH 7, r = [compound]/[polynucleotide] = 0.3, polynucleotide 2 × 10^-5 M, per base
[3] = tested on: poly dAdT–poly dAdT (AT-DNA) (DNA, polymer) AT; experiment: UV/vis titration, Scatchard (McGhee–von Hippel) fit; settings: Na+ (sodium cacodylate, I = 0.05 M), pH 7.0, n fixed 0.2, per base

| SMILES | ΔTm [1] | ΔTm [2] [°C] | logKs [3] |
| --- | --- | --- | --- |
| COc1cc2c(cc1OC)SC(c1ccc(NCc3ccc(Cl)cc3)cc1)=[N+](C)C2 | +1 ± 0.5 °C | – | – |
| COc1cc2c(cc1OC)SC(c1ccc(NCc3cccc(C)c3)cc1)=[N+](C)C2 | −1.5 ± 0.5 °C | – | – |
| COc1ccc(Nc2ccc(C3=[N+](C)Cc4cc(Nc5ccc(OC)cc5)ccc4S3)cc2)cc1 | +3.5 ± 0.5 °C | −1.5 ± 0.5 | 4.9 |
| COc1ccc(Nc2ccc(C3=[N+](C)Cc4cccc(Nc5ccc(OC)cc5)c4S3)cc2)cc1 | −1.2 ± 0.5 °C | −2.1 ± 0.5 | 4.9 |
